Here are results for twelve compounds from ChEMBL document CHEMBL1201862, “PubChem BioAssay data set” (2004).

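Interpolation was linear, between the two tested concentrations surrounding the appropriate level; five concentrations were tested over 48 hours in 96-well plates. Abbreviation: GI50, concentration required for 50% inhibition of growth.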 Calls of active or inactive are those of the source. Rule as the data show it: active = GI50 up to about 1.1 µM and inactive = higher.

Test systems include HOP-92; HL-60; KM12; SNB-19; CAKI-1; SF-268; NCI/ADR-RES; Malme-3M; A498; MOLT-4; ACHN; HCC 2998; 786-0; PC-3; K562; T47D; HCT-15; LOX IMVI; SNB-75.
Holding throughout (experiment): NCI tumour cell line growth inhibition, 48 h

Regarding `COC(=O)c1c(O)ccc2c1c1cc3ccccc3c(O)c1n2Cc1ccccc1Cl`, the GI50 is 16.9 µM (inactive) with HOP-92; 32.8 µM (inactive) with HL-60; 19.3 µM (inactive) in the experiment with KM12; 59.4 µM (inactive) with SNB-19; 22.4 µM (inactive) in the experiment on CAKI-1; 19.3 µM (inactive) with SF-268. The GI50 was 21.8 µM (inactive) in the experiment on NCI/ADR-RES; 30.3 µM (inactive) in the experiment with Malme-3M; > 100 µM (inactive) in the experiment with A498; 16.6 µM (inactive) with MOLT-4; 22.4 µM (inactive) in the experiment on ACHN; 20 µM (inactive) with HCC 2998. The GI50 in the experiment with 786-0 was 22.3 µM (inactive); with PC-3 it was 30 µM (inactive); in the experiment on K562, 31.5 µM (inactive); in the experiment on T47D, 12.2 µM (inactive); in the experiment on HCT-15 it was 19.2 µM.

Take `CC(=O)NC1CONC1=O` (stereo not drawn): the GI50 in the experiment with HOP-92, with HL-60, in the experiment on KM12, in the experiment with SNB-19, in the experiment with CAKI-1 and in the experiment with SF-268 was > 100 µM (inactive) in each case. In addition, the GI50 with NCI/ADR-RES, in the experiment with LOX IMVI, with Malme-3M, in the experiment with SNB-75, with A498 and with MOLT-4 was > 100 µM (inactive) throughout. Besides, the GI50 in the experiment on ACHN was > 100 µM (inactive); in the experiment on 786-0, > 100 µM (inactive); with PC-3, > 100 µM (inactive); with K562, > 100 µM (inactive); with T47D it was > 100 µM (inactive); in the experiment with HCT-15 it was above 100 µM.

With `COc1cc(C(=O)NNC(=O)c2cc(Br)ccc2NC(=O)c2cccs2)cc(OC)c1OC`, the GI50 is 15.3 µM (inactive) in the experiment with HOP-92; 14.8 µM (inactive) with HL-60; 22.8 µM (inactive) with KM12; 23.1 µM (inactive) in the experiment on SNB-19; 29 µM (inactive) with CAKI-1; 9.64 µM (inactive) in the experiment on SF-268. The GI50 with NCI/ADR-RES is 18.5 µM (inactive); in the experiment with LOX IMVI, 15.3 µM (inactive); with Malme-3M, 23.2 µM (inactive); with SNB-75, 4.91 µM (inactive); with A498 it was 19.1 µM (inactive); in the experiment on MOLT-4 it was 27.1 µM (inactive). Further, the GI50 was 17 µM (inactive) with ACHN; 17.7 µM (inactive) in the experiment with 786-0; 24 µM (inactive) with PC-3; < 0.01 µM (active) with K562; 19.5 µM (inactive) with T47D; 15.5 µM in the experiment with HCT-15.

For `Cc1n[n+]([O-])c(C)cc1[N+](=O)[O-]`, the GI50 with HOP-92 is 16.8 µM (inactive); in the experiment on SNB-19, 39.4 µM (inactive); with SF-268 it was 46 µM (inactive); in the experiment with NCI/ADR-RES, 20.6 µM (inactive); with LOX IMVI, 20.9 µM (inactive); with Malme-3M it was 20.9 µM (inactive). Besides, the GI50 is 23.8 µM (inactive) in the experiment on SNB-75; 18.1 µM (inactive) with A498; 16.6 µM (inactive) with ACHN; 12.5 µM (inactive) in the experiment with HCC 2998; 27.9 µM (inactive) with 786-0; 23.8 µM (inactive) in the experiment on PC-3. In addition, the results for the GI50 with T47D and in the experiment with HCT-15 were 17.4 µM (inactive) and 15.9 µM, respectively.

Take `CCC1([N+](=O)[O-])CN(N=O)C1`: the GI50 is 34.4 µM (inactive) in the experiment with HOP-92; > 100 µM (inactive) in the experiment with HL-60; > 100 µM (inactive) in the experiment on KM12; > 100 µM (inactive) in the experiment with SNB-19; > 100 µM (inactive) in the experiment on CAKI-1; > 100 µM (inactive) in the experiment with SF-268. Moreover, the GI50 in the experiment on NCI/ADR-RES, in the experiment on LOX IMVI, in the experiment on Malme-3M, in the experiment with SNB-75, in the experiment with A498 and in the experiment on MOLT-4 was > 100 µM (inactive) in each case. The GI50 in the experiment on ACHN was > 100 µM (inactive); in the experiment on 786-0, > 100 µM (inactive); in the experiment with PC-3, > 100 µM (inactive); in the experiment with K562, > 100 µM (inactive); with T47D, > 100 µM (inactive); in the experiment with HCT-15, above 100 µM.

Consider `CC(=O)OC1=CC2=CC[C@H]3[C@@H]4CCC(=O)[C@@]4(C)CC(=O)[C@]3(S)[C@@]2(C)CC1`, for which the GI50 in the experiment with HOP-92 is 24.8 µM (inactive); in the experiment with KM12, 26.3 µM (inactive); in the experiment with SNB-19, 79.8 µM (inactive); with CAKI-1, 35.2 µM (inactive); with SF-268, 26.7 µM (inactive); in the experiment with NCI/ADR-RES it was 75.7 µM (inactive). Further, the GI50 was 18.8 µM (inactive) with LOX IMVI; 22.8 µM (inactive) with Malme-3M; 40.5 µM (inactive) with SNB-75; 41.1 µM (inactive) with A498; 17.4 µM (inactive) with MOLT-4; 34.2 µM (inactive) in the experiment on ACHN. In addition, the GI50 with HCC 2998 is 31.6 µM (inactive); with 786-0 it was 27.8 µM (inactive); in the experiment with PC-3 it was 32.9 µM (inactive); with K562 it was 25.1 µM (inactive); in the experiment with T47D, 34.8 µM (inactive); in the experiment with HCT-15, 34.2 µM.

On to `COC(=O)C1(C(=O)OC)CC2=C(S(=O)(=O)c3ccccc3)C[C@H](C#N)[C@H]2C1`, for which the GI50 in the experiment with HOP-92 is 69.8 µM (inactive); in the experiment with HL-60, > 100 µM (inactive); in the experiment with KM12, > 100 µM (inactive); in the experiment on SNB-19 it was 64.6 µM (inactive); in the experiment on CAKI-1 it was > 100 µM (inactive); in the experiment on SF-268, > 100 µM (inactive). Also, the GI50 in the experiment with NCI/ADR-RES, in the experiment on LOX IMVI, in the experiment with Malme-3M, in the experiment with SNB-75, with A498 and with MOLT-4 was > 100 µM (inactive) in each case. The GI50 in the experiment on ACHN is > 100 µM (inactive); in the experiment with 786-0 it was > 100 µM (inactive); in the experiment on PC-3, > 100 µM (inactive); in the experiment on T47D, 57.5 µM (inactive); in the experiment with HCT-15, 40.6 µM.

`O=CC1C(=O)Nc2nc3ccccc3n2C1c1ccccc1` (stereo not drawn): the GI50 was 12.4 µM (inactive) in the experiment with HOP-92; 20.6 µM (inactive) in the experiment on HL-60; 14.6 µM (inactive) in the experiment on KM12; 21.1 µM (inactive) with CAKI-1; 12.1 µM (inactive) with SF-268; 54.7 µM (inactive) in the experiment on NCI/ADR-RES. The GI50 is 11.1 µM (inactive) in the experiment with LOX IMVI; 18.8 µM (inactive) in the experiment on Malme-3M; 5.75 µM (inactive) in the experiment with SNB-75; 14.3 µM (inactive) in the experiment with A498; 0.258 µM (active) with MOLT-4; 17.3 µM (inactive) in the experiment on ACHN. In addition, the GI50 is 12.4 µM (inactive) with 786-0; 18.4 µM (inactive) in the experiment on PC-3; 4.37 µM (inactive) with K562; < 0.01 µM (active) in the experiment on T47D; 15.1 µM with HCT-15.

For `COc1cc2c(cc1OCCCCN1CCN(CCCCOc3cc4c(cc3OC)C(=O)N3CCC[C@H]3C=N4)CC1)N=C[C@@H]1CCCN1C2=O`, the GI50 in the experiment with HOP-92 is < 0.01 µM (active); in the experiment with HL-60, < 0.01 µM (active); with KM12, 0.0628 µM (active); with CAKI-1 it was 0.0318 µM (active); in the experiment with SF-268 it was < 0.0289 µM (active); in the experiment on NCI/ADR-RES it was 1.94 µM (inactive). Further, the GI50 in the experiment with Malme-3M is 0.031 µM (active); in the experiment on SNB-75, 0.0262 µM (active); in the experiment on A498 it was 0.0543 µM (active); in the experiment with MOLT-4 it was < 0.01 µM (active); in the experiment with ACHN, 0.0448 µM (active); in the experiment on 786-0, < 0.014 µM (active). Besides, the GI50 in the experiment on PC-3 was 0.0873 µM (active); in the experiment with K562, 0.0199 µM (active); in the experiment with T47D it was < 0.0118 µM (active); in the experiment on HCT-15, 1.14 µM.

As for `CCOC(=O)C(=[N+]=[N-])C(=O)C1(C(=O)OCC)CCN(C(=O)c2ccccc2)C1=O` (stereo not drawn), the GI50 in the experiment with HOP-92, in the experiment on HL-60, in the experiment on KM12, in the experiment with SNB-19, with CAKI-1 and in the experiment with SF-268 was > 100 µM (inactive) each time. Besides, the GI50 in the experiment on NCI/ADR-RES, with LOX IMVI, with Malme-3M, with SNB-75, in the experiment on A498 and in the experiment with MOLT-4 was > 100 µM (inactive) throughout. Moreover, the GI50 in the experiment on ACHN is > 100 µM (inactive); in the experiment on 786-0, > 100 µM (inactive); with PC-3 it was > 100 µM (inactive); in the experiment with T47D, > 100 µM (inactive); in the experiment with HCT-15, above 100 µM.

On to `CCOC(=O)c1ccc(-c2cc(C)[nH]n2)[nH]1`, for which the GI50 was > 100 µM (inactive) in the experiment on HOP-92; 63.5 µM (inactive) in the experiment on HL-60; 62.5 µM (inactive) in the experiment on KM12; > 100 µM (inactive) in the experiment with SNB-19; > 100 µM (inactive) with CAKI-1; > 100 µM (inactive) in the experiment with SF-268. Besides, the GI50 in the experiment with NCI/ADR-RES is > 100 µM (inactive); in the experiment with LOX IMVI it was > 100 µM (inactive); with Malme-3M it was > 100 µM (inactive); in the experiment on SNB-75, > 100 µM (inactive); with A498, 50.4 µM (inactive); with ACHN, > 100 µM (inactive). Moreover, the GI50 in the experiment with 786-0 was > 100 µM (inactive); with PC-3 it was > 100 µM (inactive); with T47D, 85.5 µM (inactive); in the experiment on HCT-15, above 100 µM.

Consider `C/C(=N\Nc1nc2ccccc2o1)c1cc2ccccc2cn1`, for which the GI50 with HOP-92 was < 0.0208 µM (active); in the experiment on HL-60, < 0.01 µM (active); in the experiment on KM12 it was 0.0346 µM (active); with SNB-19 it was 0.547 µM (active); in the experiment with CAKI-1, < 0.01 µM (active); in the experiment on SF-268 it was < 0.0188 µM (active). Besides, the GI50 is < 0.01 µM (active) in the experiment with NCI/ADR-RES; < 0.01 µM (active) with Malme-3M; 0.476 µM (active) in the experiment on SNB-75; 15 µM (inactive) in the experiment with A498; < 0.01 µM (active) in the experiment on MOLT-4; < 0.01 µM (active) in the experiment on ACHN. The GI50 in the experiment with 786-0 was < 0.01 µM (active); with PC-3, < 0.01 µM (active); with K562, < 0.01 µM (active); with T47D it was < 0.01 µM (active); in the experiment with HCT-15, below 0.01 µM.
